The values below come from patent US20060211671A1, “Estrogen receptors” (priority 2001, published 2006).

Entries after “also recorded” stand apart in the source; their conditions may differ.

For assay [1], the system named is ovariectomized (ovx) mice. In words: Effects of estrogen exposure on gonadal fat in ovariectomized WT, ERKO, BERKO and DERKO mice. Conditions: for gonadal fat mass, WT mice: ovx WT mice. The class given is in vivo. The text has this: Male double heterozygous (ERα^+/−β^+/−) mice were mated with female double heterozygous (ERα^+/−β^+/−) mice, resulting in ERα^+/+β^+/+ wildtype (WT); ERα^−/−β^+/+=ERKO, ERα^+/+β^−/−=BERKO and ERα^−/−β^−/−=DERKO offsprings (Vidal O et al (2000) Proc Natl Sci USA, 97, 5474). The diet, housing and genetic background was as previously described in Vidal O et al (2000) supra. In the estrogen exposure experiments all mice were ovariectomized. Ovaries were removed after a flank incision and the incisions were closed with metallic clips. Mice were left to recover for four days after ovariectomy before start of experiments. After recovery mice were injected s.c with 2.3 μg/mouse/day of 17β-estradiol benzoate (Sigma, St Louis, Mo., USA) for 5 days/week during three weeks time. Control mice received injections of vehicle oil (olive oil, Apoteksbolaget, Göteborg, Sweden).
Ovariectomized (ovx) mice, lacking one or both of the two known ERs, were given estrogen and the effects on gonadal fat was studied. The effects of estrogen in mice with both ERα and ERβ inactivated (DERKO) were compared with the effects of estrogen in wild type (WT) mice.
In Table 2, the left part describes the effects of estrogen on fat in ovx wild type (WT) and DERKO mice. Three months old ovx mice were treated for three weeks with 2.3 μg/mouse/day of 17β-estradiol 5 days/week or olive oil as control (=vehicle). n=7 for WT vehicle, n=7 for WT estrogen, n=7 for DERKO vehicle, n=8 for DERKO estrogen. Values are given as means±SEM and expressed as % increase over vehicle treated animal. **=p<0.01 compared with vehicle treated mice. ++=p<0.01 effect of estrogen in DERKO compared with the effect of estrogen in WT, Student t-test. The right part of Table 2 describes the calculation of estrogen receptor α/β dependent and independent effects of estrogen. The effects of estrogen in WT and DERKO mice, as described in the left part of the table, were used for the calculation of the proportion of ERα/β dependent and independent effects of estrogen. The values are given as % of the total effect seen in WT mice.

In another assay the test system is orx male rats. Conditions: cited from earlier work.
The mark [2] stands for this setting: calculated from effects in WT and DERKO mice, % of the total effect seen in WT mice.

Consider 17β-estradiol benzoate [Estrogen], for which the “ERα/β Dependent effect of estrogen on Fat Weight” value in assay [1] (setting [2]) is 93%. The “ERα/β Independent effect of estrogen on Fat Weight” value in assay [1] (setting [2]) was 7%. Besides, the “gonadal fat mass, BERKO mice” value in assay [1] (ovx BERKO mice, estrogen treatment, result in words (FIG. 6)) is given as “reduced; also recorded: hyperresponsiveness”. For the same compound, in assay [1] (ovx DERKO mice, estrogen treatment, result in words (FIG. 6)), the “gonadal fat mass, DERKO mice” value was “not”. For the same compound, the “Effect of Estrogen (%) on Fat Weight, DERKO” value in assay [1] (ovx DERKO mice, three months old, 2.3 μg/mouse/day s.c. 5 days/week for three weeks, mean±SEM, % increase over vehicle treated animal) was −2.0 ± 5.2++ %. The “gonadal fat mass, WT mice” value in assay [1] (estrogen treatment, result in words (FIG. 6)) is “reduction of gonadal fat mass”; in assay [1] (estrogen treatment, result in words (FIG. 6), listed as estrogen), “reduced”.

Consider `Oc1ccc2c(c1)CC[C@H](c1ccccc1)[C@@H]2c1ccc(OCCN2CCCC2)cc1` [lasofoxifene], for which, in the assay with orx male rats, the body weight result is “decreased”, the food intake entry is recorded as “decreased” and the total serum cholesterol result is reported as “decreased”.
